Reference: patent US20230064983A1 (priority 2020, published 2023)
Several values for one entry are separate records, joined by “and”; a condition that tells them apart may be missing. Equal values may be shown once.

Legend:
[1] = biological target: T1, EGFR with insertion SVD between D770 and N771 (mutEGFR D770_N771insSVD) (Homo sapiens, UniProt P00533, DUP768-770); experiment: Exon20-Mutant-EGFR(D770_N771insSVD) kinase assay (TR-FRET); format: biochemical; conditions: 2 mM ATP, Table 2
T1 construct: amino acids R669 to A1210; made in house; host or cells: Sf9 insect cells (baculovirus)
T1 sequence (P00533 other isoform, or with tags, fused parts or gaps DUP768-770): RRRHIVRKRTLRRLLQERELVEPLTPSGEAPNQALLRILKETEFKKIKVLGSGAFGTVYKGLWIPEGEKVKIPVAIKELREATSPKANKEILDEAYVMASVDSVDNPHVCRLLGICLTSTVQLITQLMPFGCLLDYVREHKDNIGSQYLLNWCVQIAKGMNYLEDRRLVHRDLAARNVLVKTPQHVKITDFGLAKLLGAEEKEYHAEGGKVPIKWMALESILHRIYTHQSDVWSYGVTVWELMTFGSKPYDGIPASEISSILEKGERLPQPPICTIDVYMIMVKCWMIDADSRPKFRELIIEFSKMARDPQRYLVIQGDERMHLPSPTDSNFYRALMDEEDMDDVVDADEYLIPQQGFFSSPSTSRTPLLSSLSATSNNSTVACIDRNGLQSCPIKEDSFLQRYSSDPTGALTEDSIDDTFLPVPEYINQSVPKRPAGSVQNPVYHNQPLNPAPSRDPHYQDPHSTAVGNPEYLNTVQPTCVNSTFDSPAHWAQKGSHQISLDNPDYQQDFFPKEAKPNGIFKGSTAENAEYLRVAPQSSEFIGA

[2] = biological target: Ba/F3-EGFR-WT cells (Homo sapiens, UniProt P00533); experiment: Ba/F3 cell survival assay, wild type EGFR; format: cell-based; conditions: Cell Titer-Glo, 48 h, with 10 ng/mL EGF; Table 4; read-out: BA/F3 (wild type) IC50
Ba/F3-EGFR-WT cells, sequence (P00533 whole entry, looked up, stated change not applied): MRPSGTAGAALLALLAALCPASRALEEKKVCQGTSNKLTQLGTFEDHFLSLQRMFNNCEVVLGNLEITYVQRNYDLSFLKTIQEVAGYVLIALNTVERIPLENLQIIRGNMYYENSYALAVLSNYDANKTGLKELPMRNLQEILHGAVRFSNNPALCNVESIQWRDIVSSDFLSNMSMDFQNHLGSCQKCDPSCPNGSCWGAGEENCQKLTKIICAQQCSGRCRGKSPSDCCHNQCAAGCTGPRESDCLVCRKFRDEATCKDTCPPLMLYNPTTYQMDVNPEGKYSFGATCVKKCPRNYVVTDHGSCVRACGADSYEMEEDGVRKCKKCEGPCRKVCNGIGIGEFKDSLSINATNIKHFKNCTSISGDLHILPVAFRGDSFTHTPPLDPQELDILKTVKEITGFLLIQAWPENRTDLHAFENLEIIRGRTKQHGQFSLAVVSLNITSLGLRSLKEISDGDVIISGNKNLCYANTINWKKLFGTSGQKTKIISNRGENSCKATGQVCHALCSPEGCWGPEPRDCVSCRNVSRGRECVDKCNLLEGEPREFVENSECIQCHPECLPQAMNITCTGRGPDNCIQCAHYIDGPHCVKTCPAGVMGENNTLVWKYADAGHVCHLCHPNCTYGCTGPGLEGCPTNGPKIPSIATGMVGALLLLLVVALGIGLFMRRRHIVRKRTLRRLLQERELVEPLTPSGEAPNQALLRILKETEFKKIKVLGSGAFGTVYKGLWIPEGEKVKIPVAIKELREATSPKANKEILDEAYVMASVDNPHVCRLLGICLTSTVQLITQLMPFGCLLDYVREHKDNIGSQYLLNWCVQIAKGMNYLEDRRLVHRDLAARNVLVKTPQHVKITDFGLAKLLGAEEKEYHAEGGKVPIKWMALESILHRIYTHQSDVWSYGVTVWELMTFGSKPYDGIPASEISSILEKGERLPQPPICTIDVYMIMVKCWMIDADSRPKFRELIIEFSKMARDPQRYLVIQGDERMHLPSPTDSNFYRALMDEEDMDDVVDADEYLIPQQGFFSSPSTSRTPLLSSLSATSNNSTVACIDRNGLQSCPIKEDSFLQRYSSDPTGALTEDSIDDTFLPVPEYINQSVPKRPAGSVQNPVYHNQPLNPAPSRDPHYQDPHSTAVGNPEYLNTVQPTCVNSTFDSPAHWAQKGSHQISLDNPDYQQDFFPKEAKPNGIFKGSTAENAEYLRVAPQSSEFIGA

[3] = biological target: Ba/F3-EGFR-D770_N771insSVD cells (Homo sapiens, UniProt P00533, DUP768-770, cells depend on it); experiment: Ba/F3 cell survival assay, EGFR D770_N771insSVD; format: cell-based; conditions: Cell Titer-Glo, 48 h, without IL-3; Table 4; read-out: BA/F3 (insSVD) IC50
Ba/F3-EGFR-D770_N771insSVD cells, sequence (P00533 with tags, fused parts or gaps DUP768-770): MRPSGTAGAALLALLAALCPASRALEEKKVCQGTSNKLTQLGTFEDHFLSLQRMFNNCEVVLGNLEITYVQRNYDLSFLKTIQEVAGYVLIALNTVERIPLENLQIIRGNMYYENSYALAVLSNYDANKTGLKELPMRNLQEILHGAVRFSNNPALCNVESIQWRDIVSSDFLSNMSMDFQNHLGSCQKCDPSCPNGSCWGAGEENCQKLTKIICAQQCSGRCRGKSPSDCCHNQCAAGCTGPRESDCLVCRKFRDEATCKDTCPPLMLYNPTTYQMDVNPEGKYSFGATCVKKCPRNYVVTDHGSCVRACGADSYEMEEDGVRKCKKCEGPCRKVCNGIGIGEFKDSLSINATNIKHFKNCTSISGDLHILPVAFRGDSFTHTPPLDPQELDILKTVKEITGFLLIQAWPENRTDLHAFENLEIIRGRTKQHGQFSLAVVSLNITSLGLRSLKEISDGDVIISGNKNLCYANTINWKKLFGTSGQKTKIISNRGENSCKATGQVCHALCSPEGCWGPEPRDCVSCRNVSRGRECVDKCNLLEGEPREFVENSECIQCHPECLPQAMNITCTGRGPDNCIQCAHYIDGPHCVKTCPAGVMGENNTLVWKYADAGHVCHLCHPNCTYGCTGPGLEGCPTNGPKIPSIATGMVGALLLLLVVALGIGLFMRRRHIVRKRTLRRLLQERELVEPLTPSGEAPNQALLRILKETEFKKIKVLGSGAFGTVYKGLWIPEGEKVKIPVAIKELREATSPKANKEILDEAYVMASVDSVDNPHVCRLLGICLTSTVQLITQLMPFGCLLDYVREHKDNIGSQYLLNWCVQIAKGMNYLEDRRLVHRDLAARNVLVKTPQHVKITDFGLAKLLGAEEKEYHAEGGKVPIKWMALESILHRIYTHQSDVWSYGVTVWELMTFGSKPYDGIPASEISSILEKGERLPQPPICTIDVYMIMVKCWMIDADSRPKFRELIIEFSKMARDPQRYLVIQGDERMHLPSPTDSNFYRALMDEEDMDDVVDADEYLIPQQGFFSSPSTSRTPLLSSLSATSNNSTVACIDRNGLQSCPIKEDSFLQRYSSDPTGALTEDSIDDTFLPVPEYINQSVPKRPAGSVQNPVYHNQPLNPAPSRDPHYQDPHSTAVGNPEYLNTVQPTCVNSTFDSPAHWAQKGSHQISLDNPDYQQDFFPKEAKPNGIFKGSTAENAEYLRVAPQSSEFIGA

[4] = biological target: T2, Bub1 (Homo sapiens, UniProt O43683); experiment: Bub1 high ATP kinase assay (TR-FRET); format: biochemical; conditions: Bub1 high ATP (2 mM) IC50, TR-FRET, 2 mM ATP; Table 3
T2 construct: catalytic domain of human Bub1 (amino acids 704-1085); His6 (N); made in house; host or cells: insect cells (Hi5)
T2 sequence (O43683 704-1085): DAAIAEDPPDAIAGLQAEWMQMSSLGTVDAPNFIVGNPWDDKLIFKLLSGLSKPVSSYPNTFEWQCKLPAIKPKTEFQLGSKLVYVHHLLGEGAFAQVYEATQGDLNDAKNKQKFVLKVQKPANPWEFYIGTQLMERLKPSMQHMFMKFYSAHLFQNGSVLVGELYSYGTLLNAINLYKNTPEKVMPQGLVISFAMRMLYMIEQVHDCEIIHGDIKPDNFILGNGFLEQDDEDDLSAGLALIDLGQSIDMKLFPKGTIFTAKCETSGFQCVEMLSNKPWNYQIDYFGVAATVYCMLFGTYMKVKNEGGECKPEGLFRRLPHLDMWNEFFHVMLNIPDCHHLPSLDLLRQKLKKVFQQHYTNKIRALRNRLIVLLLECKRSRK
Outline: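 Enzyme was His6-tagged human Bub1 catalytic domain (aa 704-1085) from Hi5 insect cells, typically about 200 ng/ml, with a biotinylated peptide substrate at high ATP. Reaction ran 60 min at 22 °C, then was stopped with EDTA. Phosphopeptide was detected by TR-FRET (anti-phosphoserine antibody, Eu-labelled anti-mouse IgG, streptavidin-XL665), read as the 665/620 nm emission ratio.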

SMILES | mutEGFR (D770_N771insSVD) kinase assay IC50 [1] | GI50 [2] | GI50 [3] | IC50 [4]
COc1c(Cl)cccc1Nc1c(-c2ccncc2OCC2(C)CCO2)[nH]c2c1C(=O)NCC2CCO (stereo not shown) [Example 19, 3-(3-chloro-2-methoxyanilino)-7-(2-hydroxyethyl)-2-{3-[(2-methyloxetan-2-yl)methoxy]pyridin-4-yl}-1,5,6,7-tetrahydro-4H-pyrrolo[3,2-c]pyridin-4-one] | 0.279 nM | 684 nM | 86.5 nM | 13500 nM
COc1c(Cl)cccc1Nc1c(-c2ccncc2OCC2COCCO2)[nH]c2c1C(=O)NCC2C (stereo not shown) [Example 33, 3-(3-chloro-2-methoxy-anilino)-2-[3-(1,4-dioxan-2-ylmethoxy)-4-pyridyl]-7-methyl-1,5,6,7-tetrahydropyrrolo[3,2-c]pyridin-4-one] | 0.201 nM | 844 nM | 73.1 nM | 5160 nM
COC(C)(C)COc1cnccc1-c1[nH]c2c(c1Nc1cccc(F)c1CC(F)F)C(=O)N[C@H](C)C2 [Example 65, (6R)-3-[2-(2,2-difluoroethyl)-3-fluoroanilino]-2-[3-(2-methoxy-2-methylpropoxy)pyridin-4-yl]-6-methyl-1,5,6,7-tetrahydro-4H-pyrrolo[3,2-c]pyridin-4-one] | 0.24 nM | 795 nM | 72 nM | 2520 nM
COc1c(Cl)cccc1Nc1c(-c2ccncc2OCC2CCCCO2)[nH]c2c1C(=O)NCC2C (single isomer, unassigned) [Example 46, 3-(3-chloro-2-methoxy-anilino)-7-methyl-2-[3-(tetrahydropyran-2-ylmethoxy)-4-pyridyl]-1,5,6,7-tetrahydropyrrolo[3,2-c]pyridin-4-one] | 1.17 nM | 2750 nM | 125 nM | > 20000 nM
COc1c(Cl)cccc1Nc1c(-c2ccncc2OCC2OCCCC2(F)F)[nH]c2c1C(=O)N[C@H](C)C2 (mixture of isomers) [Example 74, (6R)-3-(3-chloro-2-methoxy-anilino)-2-{3-[(3,3-difluorotetrahydropyran-2-yl)methoxy]-4-pyridyl}-6-methyl-1,5,6,7-tetrahydropyrrolo[3,2-c]pyridin-4-one] | 0.242 nM | 457 nM | 14 nM | > 20000 nM
COc1c(Cl)cccc1Nc1c(-c2ccncc2OC[C@@H]2CCCO2)[nH]c2c1C(=O)NC(C(F)(F)F)C2 (single isomer, unassigned) [Example 39] | 18.8 nM | 4120 nM | 786 nM and > 1000 nM | > 20000 nM
COc1c(Cl)cccc1Nc1c(-c2ccncc2OCC2COCCO2)[nH]c2c1C(=O)N[C@H](C)C2 (mixture of isomers) [Example 24, (6R)-3-(3-chloro-2-methoxy-anilino)-2-[3-(1,4-dioxan-2-ylmethoxy)-4-pyridyl]-6-methyl-1,5,6,7-tetrahydropyrrolo[3,2-c]pyridin-4-one] | 0.111 nM and <0.0725 nM | 500 nM | 20.8 nM | 3480 nM
COc1c(Cl)cccc1Nc1c(-c2ccncc2OC[C@@H]2CCCO2)[nH]c2c1C(=O)NCC2C (single isomer, unassigned) [Example 31] | 0.119 nM | 2770 nM | 125 nM | > 20000 nM
Cc1c(Cl)cccc1Nc1c(-c2ccncc2OCC2CCCCO2)[nH]c2c1C(=O)NCC2C (single isomer, unassigned) [Example 118, 3-(3-chloro-2-methyl-anilino)-7-methyl-2-[3-(tetrahydropyran-2-ylmethoxy)-4-pyridyl]-1,5,6,7-tetrahydropyrrolo[3,2-c]pyridin-4-one] | 0.431 nM | 938 nM | 22.3 nM | > 20000 nM and 19400 nM
COc1c(Cl)cccc1Nc1c(-c2ccncc2OC[C@@H]2CN(C)CCO2)[nH]c2c1C(=O)NC1(CC1)C2 [Example 112, 3′-(3-chloro-2-methoxyanilino)-2′-(3-{[(2S)-4-methylmorpholin-2-yl]methoxy}pyridin-4-yl)-1′,7′-dihydrospiro[cyclopropane-1,6′-pyrrolo[3,2-c]pyridin]-4′(5′H)-one] | 0.193 nM | 553 nM | 20.4 nM | 7830 nM
COc1c(Cl)cccc1Nc1c(-c2ccncc2OC[C@@H]2COCCN2C)[nH]c2c1C(=O)NCC2CCF (single isomer, unassigned) [Example 90] | 0.499 nM | 1170 nM | 83.8 nM | 3880 nM
Cc1c(Cl)cccc1Nc1c(-c2ccncc2OC[C@@H]2CCCO2)[nH]c2c1C(=O)NCC2C (mixture of isomers) [Example 58, 3-(3-chloro-2-methyl-anilino)-7-methyl-2-(3-{[(2S)-oxolan-2-yl]methoxy}pyridin-4-yl)-1,5,6,7-tetrahydropyrrolo[3,2-c]pyridin-4-one] | 0.148 nM | 1250 nM | 72.9 nM | 3360 nM
COc1c(Cl)cccc1Nc1c(-c2ccncc2OCC2OCCC2(F)F)[nH]c2c1C(=O)N[C@H](C)C2 (mixture of isomers) [Example 71, (6R)-3-(3-chloro-2-methoxy-anilino)-2-{3-[(3,3-difluorotetrahydrofuran-2-yl)methoxy]-4-pyridyl}-6-methyl-1,5,6,7-tetrahydropyrrolo[3,2-c]pyridin-4-one] | 0.186 nM | 731 nM | 42.9 nM | 5740 nM
COc1c(Cl)cccc1Nc1c(-c2ccncc2OC[C@@H]2CCCO2)[nH]c2c1C(=O)NC1CCCC21 (stereo in doubt) [Example 55, (5aR*,8aS*)-3-(3-chloro-2-methoxyanilino)-2-(3-{[(2S)-oxolan-2-yl]methoxy}-4-pyridyl)-5,5a,6,7,8,8a-hexahydrocyclopenta[b]pyrrolo[2,3-d]pyridin-4(1H)-one] | 0.239 nM | 978 nM | 75.1 nM | 758 nM
COc1c(F)cccc1Nc1c(-c2ccncc2OC[C@@H]2CCCO2)[nH]c2c1C(=O)NC(C)C2 (mixture of isomers) [Example 8, 3-(3-fluoro-2-methoxyanilino)-6-methyl-2-(3-{[(2S)-oxolan-2-yl]methoxy}pyridin-4-yl)-1,5,6,7-tetrahydro-4H-pyrrolo[3,2-c]pyridin-4-one] | 0.246 nM | 623 nM | 73.3 nM | 12800 nM and 9720 nM and > 20000 nM
COc1c(Cl)cccc1Nc1c(-c2ccncc2OCC2CCCCO2)[nH]c2c1C(=O)N[C@H](C)C2 (single isomer, unassigned) [Example 28] | 0.139 nM | 189 nM | 8.33 nM | 9720 nM
COc1c(Cl)cccc1Nc1c(-c2ccncc2OCC2CCCCO2)[nH]c2c1C(=O)N[C@H](C)C2 (single isomer, unassigned) [Example 29] | 0.176 nM | 288 nM | 11 nM | 2390 nM
COc1c(Cl)cccc1Nc1c(-c2ccncc2OC[C@@H]2CCCO2)[nH]c2c1C(=O)NCC2CCO (mixture of isomers) [Example 16, 3-(3-chloro-2-methoxyanilino)-7-(2-hydroxyethyl)-2-(3-{[(2S)-oxolan-2-yl]methoxy}pyridin-4-yl)-1,5,6,7-tetrahydro-4H-pyrrolo[3,2-c]pyridin-4-one] | 0.413 nM | 644 nM | 63.8 nM | > 20000 nM
CCc1c(Cl)cccc1Nc1c(-c2ccncc2OC[C@@H]2CCCO2)[nH]c2c1C(=O)N[C@H](C)C2 [Example 109, (6R)-3-(3-chloro-2-ethylanilino)-6-methyl-2-(3-{[(2S)-oxolan-2-yl]methoxy}pyridin-4-yl)-1,5,6,7-tetrahydro-4H-pyrrolo[3,2-c]pyridin-4-one] | 0.526 nM | 944 nM | 66.9 nM | 3590 nM
COc1c(Cl)cccc1Nc1c(-c2ccncc2OC[C@@H]2CCO2)[nH]c2c1C(=O)N[C@@H](C)C2 [Example 7, (6S)-3-(3-chloro-2-methoxyanilino)-6-methyl-2-(3-{[(2S)-oxetan-2-yl]methoxy}pyridin-4-yl)-1,5,6,7-tetrahydro-4H-pyrrolo[3,2-c]pyridin-4-one] | 0.0854 nM and <0.0725 nM | 384 nM | 25.7 nM | > 20000 nM
COc1c(Cl)cccc1Nc1c(-c2ccncc2OC[C@@H]2CCCO2)[nH]c2c1C(=O)N[C@H](C)C2 (single isomer, unassigned) [Example 5] | 0.125 nM | 331 nM | 20.2 nM | 9700 nM
COc1c(Cl)cccc1Nc1c(-c2ccncc2OC[C@@H]2CCCO2)[nH]c2c1C(=O)NCC2CCO (single isomer, unassigned) [Example 17] | 0.238 nM | 1580 nM | 230 nM | > 20000 nM
